From patent US20030008234A1, “Optical data carrier comprising a cyanine dye as light-absorbent compound in the information layer” (priority 2001, published 2003)

assay: Solubility in TFP (2,2,3,3-tetrafluoropropanol); format: physicochemical

Solubility | SMILES
> 2% | CC(C)N(c1nn(C)/c(=N/C=C/C2=[N+](C)c3ccccc3C2(C)C)s1)C(C)C [Example 1]
5% | CCN1CCS/C1=C/c1sc2ccccc2[n+]1C
5% | CCN1CCS/C1=C/c1sc2ccccc2[n+]1C.[I-] [Example 2]
